The values below are quoted from earlier work in patent US20230110028A1, “OXYBATE POLYETHYLENE GLYCOL PRODRUGS” (Tris Pharma, Inc., priority 2021, published 2023).

For data set [1] the following is noted: forms gamma-butyrolactone (GBL) at pH below 7.
The conditions of data set [2]: in vivo.
Test in data set [3]: not given
This is another data set of the same source.

Consider `O=C(O)CCCO` [Sodium oxybate], for which the “solubility in aqueous solutions” value is “very soluble”. Moreover, the “stability in acidic medium” value in data set [1] was “unstable”.
For `O=C(O)CCCO` [oxybate, gamma hydroxybutyrate], the elimination half-life in data set [2] is 30 to 40 min.
Usually Solubility stands for the concentration that dissolves in the medium under given conditions. With Hydroxypropyl-β-cyclodextrin, the Solubility in data set [3] is on record as at least 600 mg/mL.
For the molecule Randomly methylated-β-cyclodextrin, in data set [3], the Solubility is at least 500 mg/mL.
With Sulfobutyl ether-β-cyclodextrin, the Solubility in data set [3] is at least 500 mg/mL.
